Experiments:
GABA-A receptor = test: 35S-TBPS binding assay on rat cerebral cortex cell membrane; set-up: species or system Sprague-Dawley rat; conditions: 2 nM 35S-TBPS, GABA added, read-out: 35S-TBPS bindng test, IC50 on inhibiting the TBPS binding activity
Summary of the method: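 Male Sprague-Dawley rat cortical membranes in PBS were preincubated 5 min at 25 °C with compound (8-point 3-fold series […], 1% DMSO), then with GABA ([…]). 2 nM 35S-TBPS was added for 20 h at 4 °C, followed by GF/C filtration and scintillation counting. % inhibition was normalised to DMSO and 10 μM reference controls, with IC50 from a 4-parameter fit.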

[1] = Pharmacokinetic assay in Balb/c mice (plasma and brain tissue); assay type: in vivo; conditions: male, Balb/c, mouse, in vivo, po, 5 mg/kg; for AUC(0-t): Area under curve AUC0-t; for AUC(0-inf): Area under curve AUC0-∞; for half-life: Half-life t1/2; for MRT: Mean residence time MRT; for Tmax: Peak time tmax; for Cmax: Plasma concentration Cmax
Procedure: Balb/c mice were used as test animals. The pharmacokinetic behavior in mice (plasma and brain tissue) of the compounds of Example 2, Example 5, Example 7, Example 12, Example 18, Example 23, Example 26, Example 38, Example 41, Example 50, Example 51 and Example 66 orally administrated at a dose of 5 mg/kg was studied.
Each group had 24 male Balb/c mice. After an overnight fast, Balb/c mice were administrated p.o. with the test compound at an administration dose of 5 mg/kg and an administration volume of 10 mL/kg.
0.2 ml of blood was taken from the heart before administration and at 0, 0.5, 1, 2, 4, 6, 8 and 24 hours after administration. The samples were stored in EDTA-K2 tubes, and centrifuged for 6 minutes at 4° C., 6000 rpm to separate the plasma. The plasma samples were stored at −80° C. The mice were sacrificed with CO2, and the whole brain tissue was taken out, weighed, placed in a 2 mL centrifuge tube and stored at −80° C.
1) 160 μL of acetonitrile was added to 40 μL of the plasma sample for precipitation, and then the mixture was centrifuged for 5-20 minutes at 3500×g.
2) 90 μL of acetonitrile containing the internal standard (100 ng/mL) was added to 30 μL of the plasma and brain homogenate samples for precipitation, and then the mixture was centrifuged for 8 minutes at 13000 rpm.
3) 70 μL of the treated supernatant was taken and added to 70 μL of water, and mixed by vortex for 10 minutes. 20 μL of the mixture was taken to analyze the concentration of the test compound by LC/MS/MS. LC/MS/MS analysis instrument: AB Sciex API 4000 Qtrap.
2.6 Liquid Chromatography Analysis • Liquid chromatography condition: Shimadzu LC-20AD pump. • Chromatographic column: Agilent ZORBAX XDB-C18 (50×2.1 mm, 3.5 μm); Mobile phase: Eluent A was 0.1% formic acid in water, and Eluent B was acetonitrile. • Flow rate: 0.4 mL/min • Elution time: 0-4.0 minutes the eluent is as follows:
The main parameters of pharmacokinetics were calculated by WinNonlin 6.1.

ICR mice = test: In vivo pharmacodynamic test in the forced swimming model in mice; conditions: for Mean (immobility, %) / Mean (immobility, s): 10 mpk p.o.; for Mean (immobility, %): floating time percentage = 100*floating time/240 s; for Mean (immobility, s): latter four minutes of 6 min swim
Procedure: The antidepressant effect of the compound was evaluated by the forced swimming model in mice.
Male ICR mice (25-35 g) were adapted in the test environment for 3 days before the forced swimming test.
According to the test design, the mice were randomly grouped on the day before the test according to body weight, with 12 mice in each group. Before the test, the compounds of each example were administrated intragastrically according to the Tmax thereof in the brain in mice pharmacokinetic test as follows:
1) Model group (0.5% CMC-Na+1% Tween 80 solution, p.o., 10 mL/kg);
2) Compounds of Example 2, Example 5, Example 7, Example 18, Example 23, Example 26 and Example 50 (10 mg/kg, p.o., 10 mL/kg).
When being administrated, the compounds of each example were suspended in 0.5% CMC-Na-1% Tween 80 solution to the desired concentration.
0.5-1 hour after administration, ICR mice were placed in a forced swimming device (transparent glass drum (water depth 18 cm, water temperature 25-26° C.), one mouse per tank) and forced to swim for 6 minutes. The forced swimming device recorded the floating time of the ICR mice during the entire 6 minutes, and the data of the latter four minutes were used for data analysis. The mice were taken out immediately after the swimming test, wiped dry and put back in their original cages.
Note: The criterion for determining the immobility time is that the mouse stops struggling in water and floats, and there are only slight limb movements to keep the head floating on the water.
3.4 Data Analysis Floating time percentage=100*floating time/240 s.

| Structure (SMILES) | IC50 (GABA-A receptor) [nM] | Area under curve AUC0-t [1] [ng·h/mL] | Area under curve AUC0-∞ [1] [ng·h/mL] | Half-life t1/2 [1] [h] | Mean residence time MRT [1] [h] | Plasma concentration Cmax [1] [ng/mL] | AUC(0-t) [1] [ng·h/mL] | AUC(0-inf) [1] [ng·h/mL] | half-life [1] [h] | MRT [1] [h] | Tmax [1] [h] | Cmax [1] [ng/mL] | Mean (immobility, %) (ICR mice) [%] | Mean (immobility, s) (ICR mice) [s] | immobility time during the latter four minutes compared with that of the model group (ICR mice; 10 mg/kg p.o.) |
| --- | --- | --- | --- | --- | --- | --- | --- | --- | --- | --- | --- | --- | --- | --- | --- |
| C[C@@]1(O)CC[C@@]2(F)[C@H](CC[C@H]3[C@@H]4CC[C@H](C(=O)Cn5cc(C(F)(F)F)cn5)[C@@]4(C)CC[C@@H]32)C1 [Example 7, 1-((3R,5R,8S,9S,10R,13S,14S,17S)-10-Fluoro-3-hydroxy-3,13-dimethylhexadecahydro-1H-cyclopenta[a]phenanthren-17-yl)-2-(4-(trifluoromethyl)-1H-pyrazol-1-yl)ethan-1-one] | 12.4 | 5106.0 | 5514.3 | 1.89 | 3.37 | 1263.3 | 3780 | 3780 | 1.73 | 3.67 | 1 | 888 | 58.99 | 141.58 | – |
| C[C@@]1(O)CC[C@@]2(F)[C@H](CC[C@H]3[C@@H]4CC[C@H](C(=O)Cn5nc(C#N)cc5C#N)[C@@]4(C)CC[C@@H]32)C1 [Example 50, 1-(2-((3R,5R,8S,9S,10R,13S,14S,17S)-10-Fluoro-3-hydroxy-3,13-dimethylhexadecahydro-1H-cyclopenta[a]phenanthren-17-yl)-2-oxoethyl)-1H-pyrazole-3,5-dicarbonitrile] | 12.5 | – | – | 1.10 | 2.48 | – | – | – | 1.11 | 2.36 | 1 | – | 42.11 | 101.07 | very significantly different |
| C[C@@]1(O)CC[C@@]2(F)[C@H](CC[C@H]3[C@@H]4CC[C@H](C(=O)Cn5nc6ccc(F)cc6n5)[C@@]4(C)CC[C@@H]32)C1 [Example 18, 2-(5-Fluoro-2H-benzo[d][1,2,3]triazol-2-yl)-1-((3R,5R,8S,9S,10R,13S,14S,17S)-10-fluoro-3-hydroxy-3,13-dimethylhexadecahydro-1H-cyclopenta[a]phenanthren-17-yl)ethan-1-one] | 10 | 2141.1 | 2186.8 | 4.7 | 6.1 | 281.7 | 1520 | 1540 | 4.2 | 5.5 | 1 | 236 | 61.19 | 146.86 | – |
